# Laboratory results as given in ChEMBL document CHEMBL1201862, “PubChem BioAssay data set” (2004).
#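 Grown in 96-well plates, cells were treated for 48 hours with each compound at five concentrations. Insufficient inhibition: endpoint recorded as highest concentration tested. GI50: concentration for 50% inhibition of growth.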 Active and inactive are the calls of the source. No stated cut-off is given here; in the data, active = GI50 up to about 1.1 µM and inactive = higher.
# Experiments:
# Test in all cases: NCI anticancer screen, dose series, 48 h
# [1] = system: DU-145
# [2] = system: TK-10
# [3] = system: HCC 2998
# [4] = system: SR
# [5] = system: BT-549
# [6] = system: PC-3
# [7] = system: SK-MEL-2
# [8] = system: NCI-H522
# [9] = system: COLO 205
# [10] = system: 786-0
# [11] = system: HCT-116
# [12] = system: SF-268
# [13] = system: UO-31
# [14] = system: NCI-H23
# [15] = system: IGROV-1
# [16] = system: UACC-62
# [17] = system: SNB-75
# [18] = system: UACC-257
# [19] = system: HCT-15
# [20] = system: EKVX
# [21] = system: MDA-MB-435
# [22] = system: RPMI-8226
# [23] = system: SN12C
# [24] = system: OVCAR-5
# [25] = system: SW-620
# [26] = system: CCRF-CEM
# [27] = system: T47D
# [28] = system: LOX IMVI
# [29] = system: HOP-62
# [30] = system: SK-MEL-5
# [31] = system: NCI/ADR-RES
# [32] = system: SF-539
# [33] = system: K562
# [34] = system: HT-29
# [35] = system: Malme-3M
# [36] = system: CAKI-1
# [37] = system: A549
# [38] = system: MDA-MB-231
# [39] = system: U-251
# [40] = system: HL-60
# [41] = system: OVCAR-3
# [42] = system: SK-OV-3
# [43] = system: MOLT-4
# [44] = system: A498
# [45] = system: OVCAR-8
# [46] = system: KM12
# [47] = system: OVCAR-4
# [48] = system: MDA-N
# [49] = system: SF-295
# [50] = system: ACHN
# [51] = system: M14
# [52] = system: NCI-H226
# [53] = system: SNB-19
# [54] = system: MCF7
# [55] = system: NCI-H460
# [56] = system: HOP-92
# [57] = system: Hs-578T
# [58] = system: SK-MEL-28
structure (smiles),measurement,setting,value
COc1ccc2c(c1)CC1=C(O2)c2ccc(OC)cc2OC1,GI50,[1],44.1 µM (inactive)
same,GI50,[2],22.6 µM (inactive)
same,GI50,[3],38.5 µM (inactive)
same,GI50,[4],36.8 µM (inactive)
same,GI50,[5],21.5 µM (inactive)
same,GI50,[6],23.2 µM (inactive)
same,GI50,[7],31.3 µM (inactive)
same,GI50,[8],17 µM (inactive)
same,GI50,[9],18.3 µM (inactive)
same,GI50,[10],21.3 µM (inactive)
same,GI50,[11],18.3 µM (inactive)
same,GI50,[12],24.4 µM (inactive)
same,GI50,[13],61.2 µM (inactive)
same,GI50,[14],45.7 µM (inactive)
same,GI50,[15],28.5 µM (inactive)
same,GI50,[16],17.7 µM (inactive)
same,GI50,[17],25 µM (inactive)
same,GI50,[18],19.2 µM (inactive)
same,GI50,[19],17.2 µM
same,GI50,[20],15.2 µM (inactive)
same,GI50,[21],17.5 µM (inactive)
same,GI50,[22],33.7 µM (inactive)
same,GI50,[23],20.5 µM (inactive)
same,GI50,[24],49.4 µM (inactive)
same,GI50,[25],16.6 µM (inactive)
same,GI50,[26],31 µM (inactive)
same,GI50,[27],13.9 µM (inactive)
same,GI50,[28],13.6 µM (inactive)
same,GI50,[29],41.9 µM (inactive)
same,GI50,[30],18.2 µM (inactive)
same,GI50,[31],34 µM (inactive)
same,GI50,[32],35.9 µM (inactive)
same,GI50,[33],44.8 µM (inactive)
same,GI50,[34],20.7 µM (inactive)
same,GI50,[35],22.5 µM (inactive)
same,GI50,[36],18.7 µM (inactive)
same,GI50,[37],74.6 µM (inactive)
same,GI50,[38],39.6 µM (inactive)
same,GI50,[39],17.5 µM (inactive)
same,GI50,[40],> 100 µM (inactive)
same,GI50,[41],19.9 µM (inactive)
same,GI50,[42],90.4 µM (inactive)
same,GI50,[43],33.4 µM (inactive)
same,GI50,[44],> 100 µM (inactive)
same,GI50,[45],29.9 µM (inactive)
same,GI50,[46],31 µM (inactive)
same,GI50,[47],22.5 µM (inactive)
same,GI50,[48],17.5 µM (inactive)
same,GI50,[49],52.2 µM (inactive)
same,GI50,[50],18.2 µM (inactive)
same,GI50,[51],19.7 µM (inactive)
same,GI50,[52],18.5 µM (inactive)
CC(=O)O[C@H]1C(=O)[C@@]2(C)C(C(OC(=O)c3ccccc3)[C@]3(O)CC(OC(=O)[C@H](OC(=O)CCC(=O)O)C(NC(=O)c4ccccc4)c4ccccc4)C(C)=C1C3(C)C)C1(OC(C)=O)COC1C[C@@H]2O (some centres not stated),GI50,[2],0.136 µM (active)
same,GI50,[3],0.0302 µM (active)
same,GI50,[6],< 0.0128 µM (active)
same,GI50,[8],< 0.01 µM (active)
same,GI50,[11],< 0.01 µM (active)
same,GI50,[12],0.0252 µM (active)
same,GI50,[14],0.0193 µM (active)
same,GI50,[53],0.0506 µM (active)
same,GI50,[15],< 0.0119 µM (active)
same,GI50,[16],< 0.0113 µM (active)
same,GI50,[19],0.995 µM
same,GI50,[54],< 0.01 µM (active)
same,GI50,[21],< 0.01 µM (active)
same,GI50,[22],< 0.01 µM (active)
same,GI50,[26],< 0.01 µM (active)
same,GI50,[27],0.0272 µM (active)
same,GI50,[28],< 0.0105 µM (active)
same,GI50,[30],< 0.0159 µM (active)
same,GI50,[32],< 0.01 µM (active)
same,GI50,[55],< 0.0132 µM (active)
same,GI50,[36],5.3 µM (inactive)
same,GI50,[37],0.0366 µM (active)
same,GI50,[56],0.656 µM (active)
same,GI50,[40],< 0.01 µM (active)
same,GI50,[57],< 0.0175 µM (active)
same,GI50,[43],< 0.0153 µM (active)
same,GI50,[44],< 0.0118 µM (active)
same,GI50,[47],31.8 µM (inactive)
same,GI50,[48],< 0.01 µM (active)
same,GI50,[52],0.0122 µM (active)
CCn1ncc(N=O)c1N,GI50,[1],> 100 µM (inactive)
same,GI50,[2],> 100 µM (inactive)
same,GI50,[3],56.2 µM (inactive)
same,GI50,[4],> 100 µM (inactive)
same,GI50,[6],> 100 µM (inactive)
same,GI50,[10],> 100 µM (inactive)
same,GI50,[13],> 100 µM (inactive)
same,GI50,[16],> 100 µM (inactive)
same,GI50,[18],> 100 µM (inactive)
same,GI50,[19],> 100 µM
same,GI50,[20],> 100 µM (inactive)
same,GI50,[54],> 100 µM (inactive)
same,GI50,[21],> 100 µM (inactive)
same,GI50,[23],> 100 µM (inactive)
same,GI50,[24],> 100 µM (inactive)
same,GI50,[25],> 100 µM (inactive)
same,GI50,[27],> 100 µM (inactive)
same,GI50,[28],> 100 µM (inactive)
same,GI50,[29],> 100 µM (inactive)
same,GI50,[30],> 100 µM (inactive)
same,GI50,[31],> 100 µM (inactive)
same,GI50,[55],> 100 µM (inactive)
same,GI50,[34],> 100 µM (inactive)
same,GI50,[58],> 100 µM (inactive)
same,GI50,[36],> 100 µM (inactive)
same,GI50,[41],> 100 µM (inactive)
same,GI50,[43],> 100 µM (inactive)
same,GI50,[45],> 100 µM (inactive)
same,GI50,[49],> 100 µM (inactive)
same,GI50,[50],> 100 µM (inactive)
